In assay [1] the test system is WM266-4 cells. In words: Mitochondrial potential assay. In kind it is cell-based, human. Particulars: 1 and 4 h; time stated at the place. On the procedure:
5,000 WM266-4 cells were seeded in 100 μL of EMEM medium supplemented with 10% FBS in 24-well plate. The cells were treated with carbonyl cyanide m-chlorophenyl hydrazone (CCCP, 25-50 μM) as a pharmacological control and 1-100 μM of 2155-14. After 1, 4, and 24 h, the cells were stained with 200 nM of Mito-Tracker dye (ThermoFisher cat #M22425) and DAPI for 1 h. Finally, the cells were washed with PBS and media was added. The cells were imaged and analyzed using Cytation 5 imager using Cy5 and DAPI filter sets (Biotek Inc, Winoosky, Vt.). To calculate staining intensity, the Object Sum Area value from Cy5 channel was obtained and divided by number of cells using DAPI channel. Both Cy5 and DAPI cell counts were conducted using optimized algorithm in automatic mode. 3 replicate wells were used.

Assay [2] concerns LC3-II and beclin-1 in M14 cells. In words: Western blotting for LC3 and beclin-1, M14. In kind it is cell-based, human. Particulars: 24 h, 100 μM. As to the method:
1×10^6 of WM266-4 or M14 cells were seeded in 3 mL of E-MEM or RPMI-1640 medium supplemented with 10% FBS and 1% penicillin/streptomycin in 6 cm plates. […] After washing with TBST, the membranes were treated with chemilumiscent horseradish peroxidase detection reagent (Thermo Scientific, Cat #32209) and exposed to autoradiography film (Denville Scientific, Inc., Metuchen, N.J., USA, cat #E3018). ImageJ software (NIH, Bethesda, Md.) was used to quantify the intensity of proteins bands. The protein bands were normalized against loading controls (β-actin) and expressed as a fold of an untreated control.
(Immunoblotting shows a protein as a band on a membrane.)

The test system of assay [3] is WM266-4 cells. Kind of assay: Annexin V flow cytometry assay. In kind it is cell-based, human. Conditions: 100 μM. The source says:
After 4, 24 and 48 hrs of compound exposure the adherent and floating cells were combined and stained using the TACS Annexin V-FITC Apoptosis detection kit (Trevigen Inc, Gaithersburg, Md., USA) using manufacturer's protocol. Viable, necrotic, early and late apoptotic cells were counted using Accuri flow cytometer as per the manufacturer instructions.

For a further assay, the system named is calpain in WM266-4 cells. In words: Calpain activity assay (Calpain-Glo). Conditions: 100 μM; 30 min, 4 and 24 h. In kind it is cell-based, human. On the procedure: The Calpain-Glo Protease Assay (Promega cat #) was used to measure the calpain enzyme activity in live cells, according to the manufacturer's instructions. 1,250 of WM-266-4 cells were plated in 384-well white TC-treated plates in 5 μL of serum-free EMEM media. The cells were incubated overnight at 37° C., 5% CO2 and 95% relative humidity and 5 μL of test compounds 2155-14, (100 μM), calpain inhibitor III and PD151746 (25 μM) were added alone or in combination and incubated at 37° C., 5% CO2, and 95% relative humidity for 0.5, 4, and 24 h. After incubation, 10 μL, of a freshly prepared dilution of the Calpain-Glo Reagent stock solution (consisting of Suc-LLVY-Glo™ substrate, Calpain-Glo™ buffer, Luciferin Detection Reagent, and CaCl2) was added to cells at above mentioned times and luminescence was recorded with a Neo 2 microplate reader (Biotek Inc). All experiments were performed in triplicate and the values provided are the calculated average of at least three independent experiments.

The test system of another assay is lamin A/C. In words: DARTS (drug affinity responsive target stability). In kind it is binding, human. The source says: (§1) (FIG. 26A, DARTS workflow). Proteins that bind the lead present as bands of differential intensity on SDS-PAGE and are identified using proteomic techniques. […] Bands from non-treated control and sample treated with 2155-14 were excised, trypsinized, and run on LC/MS/MS. […] In addition to lamin A/C, lamin B2, transketolase (TKT), and cytoskeleton-associated protein 4 (CKAP4) were also identified as possible targets (Table 7 shown in FIG. 27). The exclusive unique peptide counts were too close to make the identification of one over the other with confidence.
(§2) WM266-4 melanoma cell lysates were prepared using a routine protocol with commercially available M-PER buffer supplemented with protease and phosphatase inhibitors. Lysates were split into control and compound test portions, and DMSO and 2155-14 were added to the respective lysate portions and incubated at RT for 1 h to allow for 2155-14 binding to its target(s). Pronase dilutions (1:100. 1:300, 1:1000. 1:3000 and 1:10000, Roche #10165921001) were prepared from 10 mg/mL stock. Lysates were split into 5 aliquots, and pronase dilutions were added to lysate aliquots and incubated at RT for 30 min. […]
(§3) Each sample was analyzed by liquid-chromatography-tandem MS (LC-MS/MS) using an EASY-nLC 1000 system coupled to a Q Exactive mass spectrometer (Thermo Fisher Scientific). […]

The target in a further assay is T1, DDX1 (Homo sapiens, UniProt Q92499).
T1 construct: WM-266-4 and M14 cells were sonicated in RIPA lysis buffer; endogenous in cells; host or cells: WM266-4 (and M14) melanoma cells and lysates
Kind of assay: DARTS with western blot. In kind it is binding. Particulars: WM266-4 lysates.
From the text: as §1, §2, §3

A further assay deals with hnRNP A2/B1. In words: DARTS with western blot. In kind it is binding, human. Particulars: WM266-4 lysates.
From the text: as §1, §2, §3

The next assay concerns hnRNP H2. In words: DARTS with western blot. In kind it is binding, human. Particulars: WM266-4 lysates.
From the text: as §1, §2, §3

Entries after “also recorded” stand apart in the source; their conditions may differ.

T1 sequence (Q92499 whole entry): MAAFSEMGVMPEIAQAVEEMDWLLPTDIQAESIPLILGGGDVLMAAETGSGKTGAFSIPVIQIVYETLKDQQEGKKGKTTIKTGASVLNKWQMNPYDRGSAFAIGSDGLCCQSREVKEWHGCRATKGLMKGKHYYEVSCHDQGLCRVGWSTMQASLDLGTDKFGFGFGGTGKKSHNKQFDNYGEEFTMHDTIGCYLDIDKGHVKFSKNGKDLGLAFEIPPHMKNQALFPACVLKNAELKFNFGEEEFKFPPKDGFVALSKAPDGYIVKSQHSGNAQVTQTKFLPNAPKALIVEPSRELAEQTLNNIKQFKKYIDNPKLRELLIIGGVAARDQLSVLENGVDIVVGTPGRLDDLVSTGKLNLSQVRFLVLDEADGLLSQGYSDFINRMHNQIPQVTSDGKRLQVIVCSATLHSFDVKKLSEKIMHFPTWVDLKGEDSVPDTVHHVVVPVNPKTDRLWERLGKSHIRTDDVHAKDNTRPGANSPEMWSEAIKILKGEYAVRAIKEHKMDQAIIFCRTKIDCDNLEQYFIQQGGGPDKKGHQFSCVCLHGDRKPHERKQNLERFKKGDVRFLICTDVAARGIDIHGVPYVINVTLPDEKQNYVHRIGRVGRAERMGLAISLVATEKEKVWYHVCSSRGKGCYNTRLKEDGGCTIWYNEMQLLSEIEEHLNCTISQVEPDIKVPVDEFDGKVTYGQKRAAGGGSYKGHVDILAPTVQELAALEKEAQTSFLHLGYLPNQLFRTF

For `O=C1NC[C@H](Cc2ccccc2)N(C[C@@H]2CCCN2C[C@@H](CC2CCCCC2)N2C[C@H](Cc3ccc(O)cc3)N(CCc3ccccc3)C(=O)C2=O)C1=O` [Compound 2155-14, (S)-1((R)-1((S)-2-(((S)-6-benzyl-2,3-dioxopiperazin-1-yl)methyl)pyrrolidin-1-yl)-3-cyclohexylpropan-2-yl)-5-(4-hydroxybenzyl)-4-phenethylpiperazine-2,3-dione], in the assay with WM266-4 cells [1], the “mitochondrial potential” value was “no significant effect 1 h after the addition of compounds; also recorded: At 4 h, mitochondrial potential was decreased; also recorded: no significance between untreated control and cells treated with 2155-14”. Moreover, in assay [2], the “LC3-II level, M14” value is “dose dependent increase”. In addition, the “beclin-1 level, M14” value in assay [2] is “dose dependent increase”. Also, in the assay on WM266-4 cells [3], the “early apoptotic and necrotic cells, of total population” value is on record as “less than 5%”. Moreover, the results for the “cells undergoing late apoptosis” value in the assay with WM266-4 cells [3] (24 h) and in the assay with WM266-4 cells [3] (48 h) were 18% and 32%, respectively. Moreover, in the assay with WM266-4 cells [3] (48 h, 10 μM pan-caspase inhibitor), the “cells undergoing late apoptosis in presence of Z-VAD-FMK” value amounted to 29%. Also, the “calpain activity” value with calpain in WM266-4 cells is “Calpain activity at 30 min was at the baseline level; also recorded: time-dependent increase of activity at 4 and 24 h”. Further, the “DARTS-LC-MS/MS identification of protected band” value in the assay with lamin A/C (100 μM, 1:1,000 pronase) is recorded as “Lamin A/C was the protein with the highest score”. In addition, the “protection of lamin A/C from pronase” value with lamin A/C (WM266-4 lysates, western blot) is “protects these proteins from pronase proteolysis”. Besides, on DDX1, the “protection of DDX1 from pronase” value is “protects these proteins from pronase proteolysis”. Further, the “protection of hnRNPA2/B1 from pronase” value in the assay with hnRNP A2/B1 was “protects these proteins from pronase proteolysis”. In addition, the “protection of hnRNPH2 from pronase” value in the assay with hnRNP H2 is on record as “protects these proteins from pronase proteolysis”.

Values taken from US11149028B2, “Methods for treating melanoma using small molecules” (NOVA SOUTHEASTERN UNIVERSITY, priority 2016, dated 2021).
